This is an account of results in patent US6465259B1, “Non radioactive receptor assay suitable for quantitative and qualitative analysis of trace amounts of receptor binding analyte” (Merska B.V., priority 1999, dated 2002).

Read-outs that look alike come from different tables or passages of the source.

The target of assay [1] is T1, benzodiazepine receptor.
T1 construct: IC50; other: FLB as labeled ligand, 7.3 nM; Bmax; other: saturation with FLB; other: [3H]flunitrazepam as labeled ligand, 2.2 nM; other: FLB assay concentration 7.3 nM; recov
Description: Fluorescent receptor assay for benzodiazepines, calibration curves with FLB as labeled ligand. Format: binding, calf. Conditions: 7.3 nM.

The target in assay [2] is benzodiazepine receptor. Conditions: cited from earlier work.
The test system of assay [3] is benzodiazepine receptor. Description: Fluorescent binding assay, saturation experiments with FLB. Details: species or system calf. Conditions: free initial concentration of 15 nM. How it is done:
(§1) Calf brains, obtained from the slaughtcrhouse and stored at −80° C. after discarding the cerebellum, were homogenized in 6 volunmes (w/v) of ice-cold 0.32 M sucrose in a Potter-Elvehjem homogenizer (RW 20 DZW. Janke & Kunkel K G, Staufen i. Breisgau, Germany) fitted with a teflon pestle and centrifuged for 10 min at 1,000 ×g in a Beckman L8-55 Ulcracentrifuge (Beckman Instruments, Mijdrecht, The Netherlands). The supernatant was centrifuged for 60 min at 100,000×g. The resulting pellet (P2) was resuspended in sodium phosphate buffer (pH 7.4; 50 mM) and centrifuged for 30 min at 100,000×g. This washing step was repeated four times. All operations were performed at 4° C. The washed P2-pellet was resuspended in 5 volumes (w/v) phosphate buffer, frozen with liquid nitrogen and lyophilized (Hetosicc CD 52-1, Heto, Birkerød, Denmark) . rhe lyophilized P2-pellet was stored at −20° C. For the receptor binding assays, the lyophilized P2-pellet was resuspended in Tris-HCl buffer (pH 7.4; 50 mM) with the glass-teflon Potter homogenizer (3.5 mg/inl).
(§2) For the saturation experiments, 25 μl FLB solution (0.5-50 nM final concentration) in Tris-HCl buffer (pH 7.4; 50 mM) were pipetted in duplicate in the wells of the filtration plate after pre-wetting the filters. […] To this mixture, 200 μl of the receptor suspension (225 μg protein per assay) were added and the plate was shaken for 1 min. […] Hundred μl of the filtrates were analyzed with the above described HPLC-method.
(§3) The saturation and inhibition curves for both the radioactive labeled benzodiazepine [^3H]flunitrazepam and the fluorescent labeled benzodiazepine. […] The specific binding was calculated by subtracting the non-specific binding from the total binding. […] The Bmax value was calculated to be 3.42±0.01 nM, which corresponds to 3.84±0.09 pM/mg protein. […] After binding of BD 623 to the receptor, the fluorescence intensity is decreased and from the level of fluorescence quenching the amount of bound BD 623 can be estimated. […]

In assay [4] the test system is T1, benzodiazepine receptor. The assay is described as above. Details: species or system calf. The protocol:
as §1, §2, §3

The target of assay [5] is T1, benzodiazepine receptor. The experiment in a line: Radioligand binding assay with [3H]flunitrazepam. Set-up: species or system calf. The protocol: as §1, with “The washed P2-pellet was resuspended in 5 volumes (w/v) phosphate buffer, frozen with liquid nitrogen and lyophilized (Hetosicc CD 52-1, Heto, Birkerød, Denmark) . rhe lyophilized P2-pellet was stored at −20° C. For the receptor binding assays, the lyophilized P2-pellet was resuspended in Tris-HCl buffer (pH 7.4; 50 mM) with the glass-teflon Potter homogenizer (3.5 mg/inl).” left out
The filters of a MultiScreen-FB filtration plate were pre-wetted by pipetting 200 μl ice-cold Tris-HCl buffer (pH 7.4; 50 mm) into each well. […] After shaking the vials, the radioactivity was counted for 5 min in a Tri-Carb 4000 Packard scintillation counter (Canberra Packard, Groningen, The Netherlands). […]
The saturation and inhibition curves for both the radioactive labeled benzodiazepine [^3H]flunitrazepam and the fluorescent labeled benzodiazepine. […] The specific binding was calculated by subtracting the non-specific binding from the total binding. […] The Bmax value was calculated to be 3.42±0.01 nM, which corresponds to 3.84±0.09 pM/mg protein. […]

The test system of assay [6] is benzodiazepine receptor. Conditions: rat receptor material, cited from earlier work.
Assay [7] concerns the target benzodiazepine receptor. The experiment in a line: Affinity for the benzodiazepine receptor, method not described. It counts as binding. Conditions: FIG. 1 legend.
The target in assay [8] is benzodiazepine receptor. Conditions: McCabe et al. [h]; cited from earlier work.

With `CN1C(=O)CN=C(c2ccccc2)c2cc(Cl)ccc21` [diazepam], the half-maximal inhibitory concentration (IC50) (commonly the point on the concentration scale where inhibition reaches its midpoint) in assay [1] was 41 ± 7 nM. As to “AMCA-didesethylflurazepam [AMCA-Ro7-1986]”, in assay [2] (from reference [b]), the inhibitory constant (Ki) (in general, the dissociation constant of the complex between target and ligand, obtained from inhibition or displacement) is 8.6 nM. Also, the non-specific binding in assay [2] (reference [b]) was 20%.

As to Mmc-O—CO—(CH2)3-Ro15-3890 [FLB], in assay [3], the “non-specific binding, % of the total binding” value is given as 25%. The “added FLB bound to the receptors (total binding)” value in assay [4] (FLB assay concentration 7.3 nM) is on record as 26%. Also, the Kd (commonly the concentration at which binding is half-saturated) in assay [4] (saturation curve, one-binding site model, read-out: binding affinity (Kd) for the benzodiazepine receptor) is about 7.3 nM. For the same compound, the Ki in assay [5] (read-out: Ki-value, inhibition assays with [3H]flunitrazepam) was 6.5 nM. For the compound `CCOC(=O)c1ncn2c1CN(C)C(=O)c1cc(F)ccc1-2` [[^3H]flumazenil], the Bmax in assay [6] (filtration) is 2.3 nM.

For the compound `O=C1Nc2ccc(Cl)cc2C(c2ccccc2Cl)=NC1O` (stereo not shown) [lorazepam], the IC50 in assay [5] ([3H]flunitrazepam as labeled ligand, 2.2 nM) came to 6.61 ± 0.69 nM; in assay [1], 7.2 ± 0.5 nM. Take NBD-NH—(CH2)3-Ro15-3890 [BD 623]: in assay [6] (fluorescence quenching, no bound/unbound separation), the Bmax is recorded as 7.2 nM. Besides, the inhibition constant (Ki) in assay [7] was 5.7 nM. As for “fluorescein-NH—(CH2)3-Ro15-3890 [BD 621]”, the dissociation constant (Kd) in assay [8] is 63 nM.
